Experimental data published in US9737532B2, “Method of treating ischemia/reperfusion injury” (TOKYO UNIVERSITY OF SCIENCE FOUNDATION, priority 2011, dated 2017).
Where two headings read alike, the source gives them in different places. Where a SMILES comes first, the peptide text is derived from it. The star is where a group is joined. Cbz = O=C(OCc1ccccc1)*

Key:
Parp1 protein [1] = assay: Parp1 protein levels by Western blotting in human cell lines; type: cell-based
caspase-3 = caspase-3 activation by Western blotting in mouse fibroblast cells; type: cell-based; conditions: 24 hours
Parp1 = conditions: cited from earlier work
Parp1 mRNA = Parp1 mRNA by RT-PCR; type: cell-based, mouse; conditions: 24 hours, FIG. 3A
Experimental: Cells were lyzed by RNAiso PLUS (TaKaRa, Japan), and then total RNA was purified using a FastPure RNA kit (TaKaRa, Japan) according to manufacturer's protocol. […] RNA was subjected to reverse transcription with PrimeScript Reverse Transcriptase (TaKaRa, Japan) and random hexamer (TaKaRa, Japan). The PCR reaction was performed using Platinum Taq DNA Polymerase High Fidelity (Invitrogen, USA) and Parp1 (forward, 5′-[…]-3′ (SEQ ID NO:6); reverse, 5′-[…]-3′ (SEQ ID NO:7)) or β-actin primers (forward, 5′-[…]-3′ (SEQ ID NO:8); reverse, 5′-[…]-3′ (SEQ ID NO:9)) as follows: initiation step, at 94° C. for 1 min; amplification step, 30 (Parp1) or 25 (β-actin) cycles of at 94° C. for 1 min, at 52° C. (Parp1) or 61° C. (β-actin) for 15 sec, at 68° C. for 15 sec; termination step, 68° C. 15 sec. PCR products were subjected to 1.8% agarose gel electrophoresis, stained with ethidium bromide, and visualized with LAS3000. The data was analyzed using MultiGauge software (FUJI FILM, Japan).

Parp1 protein [2] = assay: Parp1 protein levels by Western blotting in mouse cells; type: cell-based; conditions: for Parp1 reduction, p53 dependency: MEFs from p53+/+ or −/− mice; for reduction in Parp1 protein: summary statement of the discussion; for basal Parp1 protein levels: MG132 alone, 5 μM
Source text: Mouse fibroblast cell line 3T3-L1, human lung cancer cell line A549, and human hepatoma cell line HepG2 were purchased from the RIKEN Bioresource Center (Japan). Mouse fibroblast cell line 3T3-F442A and human osteosarcoma cell line U2OS were purchased from the European Collection of Animal Cell Cultures (U.K.). p53 deficient mouse-derived fibroblast cell line HW (J. Med. Chem. (2010) 53, 4561-4584) was kindly provided by Dr. Masayuki Saito (Tenshi University, Japan). The cells were maintained in Dulbecco's modified Eagle's medium (low glucose) (WAKO, Japan) with 10% (3T3-L1, 3T3-F442A, HW, U2OS, and HepG2) or 5% (A549) fetal calf serum and 1% penicillin/streptomycin (SIGMA). Cpt and MG132 were purchased from WAKO (Japan).
We designed a mouse p53 shRNA expression vector based on target sequences for effective p53 knockdown, as previously reported (J. Biol. Chem. (2003) 278, 11731-11734). Two oligonucleotides, 5′-gatcccc[…]ttcaagaga[…]ttttt ggaaa-3′ (SEQ ID NO:1) and 5′-agcttttccaaaaa[…]tctcttgaa[…] ACggg-3′ (SEQ ID NO:2) (upper case letters, target sequences against p53; lower case letters, BgIII, HindIII or loop structure sequences) were chemically synthesized (Operon Biotechnology, USA). The annealed oligos were directly ligated into a BgIII and HindIII-digested pSUPER-puro shRNA expression vector gifted from Dr. Shigeo Ohno (Yokohama City University, Japan) (Cell Sci. (2006) 119, 2107-2118). The produced vector, termed pSUPER-puro-shmp53, was transfected with Lipofectamine LTX (Invitrogen, USA) into 3T3-L1 cells, according to the manufacturer's protocol. For stable p53 knockdown cell lines, the transfected cells were selected with puromycin and resistant clones were isolated by trypsinization using cloning cylinders.
p53 heterozygous mice (Accession Number, CDB 0001K) (Oncogene (1993) 8, 3313-3322) were purchased from RIKEN BRC (Saitama, Japan). p53 heterozygous males and females were crossed, and MEFs were prepared from the pregnant females. Each 13- to 15-day-old embryo was dissected from the uterus and washed with PBS. After removal of the head, tail, limbs, and blood-enriched organs, the trimmed embryo was washed with PBS and minced. After trypsinization at 37° C. for 10 min followed by inactivation of trypsin by addition of FCS, MEFs were separated by filtration through a cell-strainer. p53 status was confirmed by PCR using previously described primers (forward primer for p53 genomic sequence, 5′-[…]-3′ (SEQ ID NO:3); reverse primer for p53 genomic sequence, 5′-[…]-3′ (SEQ ID NO:4), forward primer for neo sequence, 5′-[…]-3′ (SEQ ID NO:5)) (Oncogene (1993) 8, 3313-3322), and the established MEFs were maintained in DMEM high glucose with 10% FCS, 2-mercaptoethanol (2-ME), and antibiotics.
Cells were lyzed by the addition of lysis buffer (50 mM Tris-HCl pH6.8, 2% SDS, 5% glycerol), boiled for 5 min, and sonicated. Protein concentrations of the soluble fraction were determined by BCA protein assay (PIERCE, USA) according to the manufacturer's protocol, and standardized by the addition of lysis buffer. Following this, the proteins were added to 2-ME and bromophenol blue so as to obtain final concentrations of 5% and 0.025%, respectively, and boiled for 5 min. Equal amounts of proteins (5 to 20 μg) were subjected to SDS-PAGE and transferred to nitrocellulose membranes. The membranes were blocked with 2.5% skim milk and 0.25% BSA in TBS (50 mM Tris, pH 7.4, 150 mM NaCl) containing 0.1% Tween 20 (TTBS) for 1 h at room temperature, and then probed with appropriate primary antibodies overnight at 4° C. or for 2 h at room temperature. As primary antibodies, anti-Parp1 (clone C-2-10, WAKO, Japan), anti-p53 (clone Ab-1, Calbiochem, USA), anti-βactin (clone AC-15, SIGMA, USA), or anti-caspase-3 (clone 1F3, MBL, Japan) antibodies were used. […]

p53 = p53 protein stabilization by Western blotting in mouse fibroblast cells; type: cell-based; conditions: for p53 accumulation: summary statement of the discussion; for p53 stabilization: 24 hours, FIG. 1A; for p53 protein stabilization: 8 hours, FIG. 4A
[3] = 3T3-F442A cells, 8 hours, FIGS. 4A and 4B
[4] = 3T3-F442A cells, 24 hours, FIGS. 1A and 1B
[5] = 3T3-L1 cells, 8 hours, FIGS. 4A and 4B
[6] = 3T3-L1 cells, 24 hours, FIGS. 1A and 1B

For `COc1ccc(C2=N[C@@H](c3ccc(Cl)cc3)[C@@H](c3ccc(Cl)cc3)N2C(=O)N2CCNC(=O)C2)c(OC(C)C)c1` [Nutlin3a], the “Nutlin3a-induced Parp1 decrease” value (Parp1 protein [1]; A549 cells, 24 h, FIG. 1D) was “detected the Nutlin3a-induced Parp1 decrease in only A549 cells”, the “reduction in Parp1 protein” value (Parp1 protein [1]; HCT116 cells, various doses of Nutlin3a, data not shown) was “no significant reduction in Parp1 protein other than apoptotic cleavage” and the caspase-3 activation (caspase-3; 3T3-F442A cells) was “no caspase-3 activation”. For the same molecule, the caspase-3 activation (caspase-3; 3T3-L1 cells) was “no caspase-3 activation”, the “cleavage of Parp1” value (Parp1; human colon cancer cell line HCT116) was “induces cleavage of Parp1 into two apoptotic fragments” and the “cleavage of Parp1” value (Parp1; human myeloid leukemia cell line ML-1) was “induces cleavage of Parp1 into two apoptotic fragments”. The “Parp1 mRNA” value (Parp1 mRNA; p53 deficient cell lines (3T3-L1/shp53 and HW)) was “did not change”, the “Parp1 mRNA” value (Parp1 mRNA; p53 proficient cell lines (3T3-L1 and 3T3-F442A)) was “did not change” and the Parp1 protein levels (Parp1 protein [2]; [3]) was “markedly decreased the Parp1 protein levels”. For the same molecule, the Parp1 protein levels (Parp1 protein [2]; [4]) was “markedly decreased it”, the “decrease in Parp1” value (Parp1 protein [2]; 3T3-L1/shp53 cells (p53 stable knockdown), FIG. 2B) was “diminished significantly” and the “decrease in Parp1” value (Parp1 protein [2]; 3T3-L1 cells with shRNA-mediated transient knockdown of p53, FIG. 2A) was “attenuated the decrease in Parp1”. The Parp1 protein levels (Parp1 protein [2]; [5]) was “markedly decreased the Parp1 protein levels”, the Parp1 protein levels (Parp1 protein [2]; [6]) was “markedly decreased it” and the “Parp1 protein, time course” value (Parp1 protein [2]; 3T3-L1 or 3T3-F442A cells, 25 μM for 8 h, FIG. 1C) was “Parp1 protein diminished”. The “decrease in Parp1” value (Parp1 protein [2]; HW cells (p53 deficient), FIG. 2B) was “diminished significantly”, the “Parp1 reduction, p53 dependency” value (Parp1 protein [2]; 24 hours, FIG. 2C) was “reduces the Parp1 protein levels in a p53-dependent manner” and the “levels of full length of Parp1 protein” value (Parp1 protein [2]; Nutlin3a-treated 3T3-L1, first observation) was “significant reduction in the levels of full length of Parp1 protein without cleavage into p85 and p25 apoptotic fragments”. The “cell viability (trypan blue exclusion)” value (3T3-L1 cells) was “the cells were viable”.

With `N.N.[Cl][Pt][Cl]` [cisplatin] the p53 accumulation (p53) was “induced p53 accumulation”, the Parp1 protein levels (Parp1 protein [2]; cisplatin treatment, data not shown) was “did not affect Parp1 protein levels” and the “reduction in Parp1 protein” value (Parp1 protein [2]) was “did not evoke a significant reduction in Parp1 protein”.

In the case of `CC[C@@]1(O)C(=O)OCc2c1cc1n(c2=O)Cc2cc3ccccc3nc2-1` [Cpt, camptothecin], the caspase-3 activation (caspase-3; 3T3-F442A cells) is reported as “no caspase-3 activation”, the caspase-3 activation (caspase-3; 3T3-L1 cells) is reported as “no caspase-3 activation” and the p53 stabilization (p53; 3T3-F442A cells) is reported as “induced p53 stabilization”. For the same molecule, the p53 stabilization (p53; 3T3-L1 cells) was “induced p53 stabilization”, the p53 accumulation (p53) was “induced p53 accumulation” and the Parp1 protein levels (Parp1 protein [2]; [4]) was “did not alter the Parp1 protein levels”. The Parp1 protein levels (Parp1 protein [2]; [6]) was “did not alter the Parp1 protein levels” and the “reduction in Parp1 protein” value (Parp1 protein [2]) was “did not evoke a significant reduction in Parp1 protein”.

With `CC(C)C[C@@H](C=O)NC(=O)[C@H](CC(C)C)NC(=O)[C@H](CC(C)C)NC(=O)OCc1ccccc1` [MG132] (Cbz-Leu-Leu-Leu-aldehyde) the p53 accumulation (p53) was “induced p53 accumulation”, the “effect on Caylin2-induced reduction in Parp1” value (Parp1 protein [2]; 5 μM MG132 with 20 μM Caylin2, 8 hours, 3T3-L1 cells, FIG. 6B) was “clearly inhibited the Caylin2-induced reduction in Parp1” and the “effect on Nutlin3a-induced reduction in Parp1” value (Parp1 protein [2]; 5 μM MG132 with 25 μM Nutlin3a, 8 hours, 3T3-L1 and 3T3-F442A cells, FIG. 3B) was “clearly inhibited the Nutlin3a-induced reduction in Parp1”. The “basal Parp1 protein levels” value (Parp1 protein [2]; 8 hours, 3T3-L1 and 3T3-F442A cells, FIG. 3B) was “did not affect basal Parp1 protein levels”, the “basal Parp1 protein levels” value (Parp1 protein [2]; 8 hours, 3T3-L1 cells, FIG. 6B) was “did not affect basal Parp1 protein levels” and the “reduction in Parp1 protein” value (Parp1 protein [2]) was “did not evoke a significant reduction in Parp1 protein”.

In the case of `COc1ccc(C2=N[C@H](c3ccc(C(F)(F)F)cc3)[C@H](c3ccc(C(F)(F)F)cc3)N2C(=O)N2CCNC(=O)C2)c(OC(C)C)c1` [Caylin2], the p53 protein stabilization (p53; 3T3-F442A cells) is reported as “induced p53 protein stabilization”, the p53 protein stabilization (p53; 3T3-L1 cells) is reported as “induced p53 protein stabilization” and the “Parp1 cleavage / Parp1 protein” value (Parp1 protein [2]; 20 μM Caylin2, 8 hours) is reported as “induced Parp1 protein decrease without any trace of its apoptotic cleavage”. For the same molecule, the “Parp1 cleavage / Parp1 protein” value (Parp1 protein [2]; 100 μM Caylin2, 8 hours) was “induced Parp1 cleavage”, the Parp1 protein levels (Parp1 protein [2]; [3]) was “markedly decreased the Parp1 protein levels” and the Parp1 protein levels (Parp1 protein [2]; [5]) was “markedly decreased the Parp1 protein levels”. The “Parp1 reduction, p53 dependency” value (Parp1 protein [2]; 8 hours, FIGS. 5A and 5B) was “reduces the Parp1 protein levels in a p53-dependent manner”.
